Results on one molecule are retold here after patent publication US9655877B2, “Therapeutic methods for treating inflammation and immune system disorders” (priority 2009, dated 2017).

Data set [1] concerns nitrite production in BV-2 cells. Briefly: LPS-induced nitrite (nitric oxide) production in BV-2 cells, Griess reagent. The class given is cell-based, murine. To be noted: 100 ng/ml LPS, 1-50 μg/ml, 18 hours. Here is the method:
Nitrite levels in the culture media were determined using Griess reagent under manufacturer's instructions (Sigma Aldrich, St. Louis, Mo.). Fresh culture media were used as blanks and the nitrite levels were determined by using a standard sodium nitrite curve.
The effect of each extract on nitric oxide production is evaluated according to the procedures illustrated as follows. Briefly, murine microglia cell line BV-2 is maintained in Dulbecco's modified Eagle's minimum essential medium (DMEM) supplemented with 10% FBS and 1% penicillin and streptomycin (Invitrogen Life Technologies, Carlsbad, Calif.) at 37° C. in a humidified atmosphere with 5% CO2 in warm air.
0.1 M cells/ml BV-2 cells are seeded in 24-well plates (0.5 ml in each well). Cells are treated with 0.05% DMSO; 0.05% DMSO and 100 ng/ml LPS; or 100 ng/ml LPS and 50 μg/ml of an LCX extract for 18 hours, respectively. The culture supernatant is collected. The nitric oxide level is measured using the Griess reagent according to standard manufacturer's instructions (Sigma Aldrich, St. Louis, Mo.), and assessed using the standard sodium nitrite curve.
The effect of senkyunolide A (Sen A) and Z-ligustilide (Z-Lig) at various concentrations on LPS-induced nitrite production is further evaluated in this Example. Briefly, 0.1 M cells/ml BV-2 cells are seeded in 24-well plates (0.5 ml in each well). Cells are treated with 0.05% DMSO; 0.05% DMSO and 100 ng/ml LPS; 50 μg/ml Sen A/Z-Lig; or 100 ng/ml LPS and Sen A/Z-Lig at a concentration of 1 μg/ml, 5 μg/ml, 10 μg/ml, 25 μg/ml, and 50 μg/ml for 18 hours, respectively. The culture supernatant is collected. The nitric oxide level is measured using the Griess reagent according to standard manufacturer's instructions (Sigma Aldrich, St. Louis, Mo.), and evaluated using the standard sodium nitrite curve.

Data set [2] deals with TNF-α production in human blood macrophages. Kind of data set: LPS-induced TNF-α production in human blood macrophages (PBMac), ELISA. The class given is cell-based. The note with it: 25 or 50 μg/ml for 24 hours, then 1 ng/ml LPS for 24 hours. As to the method:
To measure the TNF-α level in cell culture supernatants, BV-2 cells were seeded at 1×10^5 cells/ml in the volume of 0.5 ml in 24-well culture plates. They were co-treated with or without 100 ng/ml LPS in the absence or presence of indicated concentrations of bioactive compounds of LCX for 18 h. In addition, PBMac cells were seeded at 1×10^6 cells/ml in the volume of 0.5 ml in 24-well plates. After incubation, the supernatants were collected and TNF-α levels were determined by ELISA according to the manufacturer's instructions (R&D Systems). […] To study the effect of Sen A and Z-Lig at various concentrations on TNF-α production, 1×10^6 cells/ml (FIG. 6) PBMac cells are seeded in 24-well plates (0.5 ml in each well). Cells are treated with 25 μg/ml or 50 μg/ml Sen A, Z-Lig, or DMSO for 24 hours prior to the addition of 1 ng/ml LPS, and further incubated for another 24 hours. The culture supernatants are collected and the level of secreted TNF-α is measured by ELISA according to the manufacturer's instructions (R&D Systems, Minneapolis, Minn.).

Data set [3] concerns TNF-α protein production in BV-2 cells. Kind of data set: LPS-induced TNF-α protein production in BV-2 cells, ELISA. The class given is cell-based, murine. The note with it: 100 ng/ml LPS, 18 hours. As to the method:
To measure the TNF-α level in cell culture supernatants, BV-2 cells were seeded at 1×10^5 cells/ml in the volume of 0.5 ml in 24-well culture plates. They were co-treated with or without 100 ng/ml LPS in the absence or presence of indicated concentrations of bioactive compounds of LCX for 18 h. In addition, PBMac cells were seeded at 1×10^6 cells/ml in the volume of 0.5 ml in 24-well plates. After incubation, the supernatants were collected and TNF-α levels were determined by ELISA according to the manufacturer's instructions (R&D Systems).
The role of senkyunolide A (Sen A) and Z-ligustilide (Z-Lig) in suppressing TNF-α production is further evaluated in this Example. Briefly, 5×10^4 cells/ml BV-2 cells are seeded in 24-well plates (0.5 ml in each well). Cells are treated with 0.05% DMSO; 0.05% DMSO and 100 ng/ml LPS; 50 μg/ml Sen A/Z-Lig; or 100 ng/ml LPS and Sen A/Z-Lig at a concentration of 1 μg/ml, 5 μg/ml, 10 μg/ml, 25 μg/ml, and 50 μg/ml for 18 hours, respectively. The culture supernatant is collected and the level of secreted TNF-α is measured by ELISA.
Background: An ELISA detects its analyte on a solid surface through an enzyme-linked reagent.

For data set [4], the system named is Neuro-2a cells. Kind of data set: Conditioned culture medium transfer model (LPS-treated BV-2 supernatant on Neuro-2a), MTT assay. Format: cell-based, murine. To be noted: supernatant of BV-2 cells treated with 100 ng/ml LPS and 50 μg/ml compound 18 h, on Neuro-2a 48 h; LPS only more than 40%. As to the method: BV-2 cells (3×10^5 cells/ml) were first treated with 100 ng/ml LPS for 18 h, in the presence of either 0.05% DMSO or 50 μg/ml senkyunolide A or Z-ligustilide. After centrifugation, the supernatants from BV-2 cells were transferred to Neuro-2a cells ([…]) for 48 h. Viability of Neuro-2a cells was measured using MTT assays. Results are shown as mean SD from three independent experiments. *p<0.05 compared with DMSO+LPS.
BV-2 cells were seeded at 3×10^5 cells/ml in 12-well culture plates (1 ml in each well). They were co-treated with or without 100 ng/ml LPS, in the presence of 0.05% DMSO, 50 μg/ml senkyunolide A, or 50 μg/ml Z-ligustilide, for 18 h. The supernatants were then collected and centrifuged at 13,200 rpm for 3 min. The resulting supernatants were then transferred to Neuro-2a cells (1×10^5 cells/ml in 24-well culture plates), which were incubated for another 48 h. Cell viability of Neuro-2a cells was measured by MTT assay.
Briefly, to investigate the physiological significance of Sen A and Z-Lig, a conditioned culture medium transfer model, commonly used for studying neuronal cell death induced by microglial activation, was adopted. After BV-2 cells were challenged with LPS, the supernatants were collected and centrifuged. The conditioned culture media were then transferred to Neuro-2a cell cultures.

Data set [5] has as its system Neuro-2a cells. Kind of data set: Neuro-2a cells treated with compound alone in the culture media. The note with it: compound alone in the culture media (data not shown). Format: cell-based, murine. The source says: Specifically, a significant reduction in cell death, to less than 15% and 25%, respectively, was observed.

Where “and” joins values, the source holds several entries; their conditions need not be identical. Identical values can stand only once.

`CCC/C=C1\OC(=O)C2=C1CCC=C2` [Z-ligustilide]: the “effect on nitrite production over concentrations” value in data set [1] is listed as “inhibits nitrite production in a dose-dependent manner”. Besides, the “effect on endotoxin-induced TNF-α production” value in data set [2] is on record as “suppress endotoxin-induced TNF-α production in a dose-dependent manner”. Moreover, the “effect on TNF-α production over concentrations” value in data set [3] (1-50 μg/ml) was “inhibits TNF-α production in a dose-dependent manner”. Further, in data set [3], the “concentration that significantly inhibits TNF-α production” value is 10 µg/mL and > 10 µg/mL. Besides, the “cell death of Neuro-2a cells” value with Neuro-2a cells [4] is on record as below 25%. For the same molecule, the “cell death with compound alone” value in the data set on Neuro-2a cells [5] is “did not show cell death”.
